Experimental data taken from patent publication US20080153910A1, “LYSINE IN THERAPEUTIC ANGIOGENESIS FOR CARDIAC AND CEREBRAL/NEURAL REPERFUSION” (priority 2001, published 2008).
Entries after “also recorded” stand apart in the source; their conditions may differ.

Tests used:
angiogenesis = assay: Oligo-lysine and d-lysine induced cell expansion and angiogenesis in-vivo; settings: compared to l-lysine
adherent cellular growth = assay: Cellular expansion in culture (in-vitro); assay type: cell-based; settings: compared to l-lysine; d-Lysine about 10 mcg/ml added load
Text: Photo 12, cell culture photographs of d-Lysine (about 10 mcg/ml of added load, in addition to the usual load of I-Lysine, whatever was there in the media as the metabolic requirement) mediated cellular expansion in culture. […] In-situ controlled and physiological expansion of constituent cells in a wound bed, including the endothelial cells and their mediation of normal angiogenic process, mediate only by lysine/derivative(s), without addition/intervention of any other additive(s), whatsoever, is the essence of present invention.

protein synthesis = assay: 35S-Methionine incorporation in acute surgical wound tissue; assay type: in vivo; settings: 72 hrs post surgery, topical, vs control wound, HCl
collagen synthesis = assay: 14C-Glycine incorporation in wound tissue; assay type: in vivo; settings: experimental wound, 100% (w/w) topical, 0.25 to 100 mg/sq. in
Text: As glycine is present at every third position in the primary sequence of Collagen, ^14C-Glycine incorporation in the wound tissue was supposed to give an idea of differential collagen synthesis in experimental and control wounds.

hybridoma cell mass = settings: compared to other physico-chemical means (Datta, D et al. 1997); cited from earlier work
acute surgical wounds = assay: Acute surgical wound model (full thickness skin incisions); assay type: in vivo, Rabbits
Protocol: Rabbits (about 1.5 Kg body wt.) from Haffkine Biopharmaceuticals, Mumbai, India were used for acute surgical wound model experimentations.
For acute surgical wound experiments, dorsal paravertebral skin was shaved in both the groups. Full thickness skin incisions (about 1 inch long) were made on either side of the vertebral column under local anaesthesia. In the experimental group, “lysine” in powder form(s) was instilled/spinkled/applied (about 10-15 mg) in each wound and the wounds were closed by single suture each to keep the edges apposed. No surface/systemic antibiotics were given to the animals dressed with “lysine”. Similar treatments were given to the control wounds except for omitting the “lysine” dressing altogether. Control wounds were protected with surface antibiotics ointment, applied at the time of each dressing. The wounds were covered with adhesive plasters in both the groups. Dressings were replaced every 48-72 hrs.
(§1) Tissue biopsies were taken from both groups—either animals or human beings—from appropriate wound site(s)/cardiac tissue (myocardium) at various time points post surgery/applications/dressings with the active ingredient(s), fixed at room temp. for 24 hrs. in formal saline (4% v/v). Tissue sections were stained with haematoxylin and eosin and observed under light microscope.
For examination of wound tissues under scanning electron microscope, skin tissues were taken (about 1.5 inch square) surgically under local anaesthesia in such a way that the original wound incision lied at the center of this piece of skin tissue, which was fixed in formal saline (4%) for 24 hrs at room temp. and pressure. Before mounting on to the observation stub with the help of a double faced adhesive tape, the wet tissues were dried adequately first with tissue papers and then at 37 degree Centrigrade incubator for about 2 hrs. Finally the dried tissues were cut with scissors in such a way that the cut line in each case was perpendicular to the original incision line. The finally prepared samples were gold coated in a hummer for around 4 minutes in vacuum and examined in a scanning electron microscope (Jeol).

chronic wounds = assay: Controlled open trial of lysine in chronic human wounds; assay type: in vivo
Text: Chronic wounds of different anatomical locations as well as etiology were included in the controlled open trial of “lysine” for it's/their ability to induce angiogenesis and induction of the healthy granulation tissue formation in these chronic wounds. These included diabetic wounds and ulcers of various durations and severity, bed sores and pressure sores of various durations, infected wounds and cellulitic wounds of various origins, burns of different degrees and extents—both infected and otherwise, amputations, skingrafts, venous ulcers and even leprotic wounds and ulcers of long standing.
The wounds were debrided manually with gauge pieces soaked in normal saline to the point of bleeding of smaller vessels at the base of the wounds (wound-bed). Some of the chronic wounds were debrided surgically depending on the severity of the wound condition(s). Dressings were done with adequate amounts of the amino acid and/derivative(s) applied to the wound site(s) topically/locally. Wounds were closed with moistened gauge piece and adhesive tapes and the procedure repeated every 72-96 hrs. This approach constituted the experimental group subjects. In the control groups, conventional therapy were instituted both in terms of surgical/manual/enzymatic debridements as well as applying usual medications e.g. betadine, salutyl (a preparation which removes ischaemia by inducing angiogenesis in ischaemic wounds), trypsin, chymotrypsin, metronidazole preparations, silver sulfadiazine, regranex (a PDGF based healing agent containing “small” amount of the cationic amino acid lysine as “stabilizing agent”, along with quite a few other additives and ingredients), various surface antibiotics etc., depending on the clinical condition in question.
as §1

ischaemic myocardium = assay: Cardiac angiogenesis / coronary ischaemia model; assay type: in vivo, sheep
Protocol: For cardiac angiogenesis experiments, healthy immunized adult sheep, weighing 20-30 Kgs were selected. The selected animals underwent routine blood tests and echocardiography prior to surgery which acted as the base line data. Under general anaesthesia, 4 sheep were operated through a left thoracotomy. […] In one of the experimental animals, in addition to the intramuscular injection of lysine, about 10 ml of the saturated solution of lysine was injected at the root of the aorta through a pig-tail catheter passed retrogradely through the descending thoracic aorta. […] Post-operative echocardiogram were done in all the animals at 96 hrs post-surgery to assess the left ventricular wall motion. Two weeks post-surgery echocardiograms were done to assess left ventricular wall motion. The animals were sacrificed and autopsy of the hearts were done for examination of the degree of angiogenesis.
Tissue biopsies were taken from both groups—either animals or human beings—from appropriate wound site(s)/cardiac tissue (myocardium) at various time points post surgery/applications/dressings with the active ingredient(s), fixed at room temp. for 24 hrs. in formal saline (4% v/v). Tissue sections were stained with haematoxylin and eosin and observed under light microscope. […]

## NCCCC[C@@H](N)C(=O)O [d-Lysine]
angiogenesis
  angiogenesis in-vivo: equally effective
  expansion of cells in-vivo: equally effective
Adherent cellular growth
  cellular expansion / growth in-vitro: equally effective

## Cl.NCCCC[C@H](N)C(=O)O [L-lysine HCl]
Protein synthesis; listed as 100% (w/w) powder formulation
  35S-Methionine incorporation: Significant difference
Protein synthesis; listed as amino acid
  35S-Methionine incorporation: Significantly more
Collagen synthesis
  14C-Glycine incorporation: Comparatively low incorporation

## NCCCC[C@H](N)C(=O)O [lysine, Lysine]
Hybridoma cell mass
  expansion of biomass (cell population): expand the biomass (cell population) at the least possible time
Acute surgical wounds; acute surgical incision dressed with topically applied lysine, 72 hrs post surgery
  granulation tissue (scanning electron microscopy): spongy granulation tissue
Acute surgical wounds; acute surgical incision model, systemic application
  dividing cells in-vivo: stratified layers of dividing cells
Acute surgical wounds; rabbit, experimental vs control wound
  histopathology: cellular thickening from basal keratinocyte layer: extensive cellular thickening from the basal keratinocyte layer
Acute surgical wounds; systemic lysine, i.p. injection, 5 ml, 5 mg/ml
  granulation tissue (scanning electron microscopy): spongy granulation tissue in the vicinity of the incision
Chronic wounds; all types of acute and chronic wounds of both animal and human origin
  in-situ tissue repair: excellent tissue regeneration in-situ
Chronic wounds; bed sore, about two weeks of topical application
  granulation tissue / angiogenic response: Extensive granulation tissue and profuse angiogenic response
Chronic wounds; cellulitic wound following 3rd degree burn
  time to skin graft: around two weeks
Chronic wounds; cellulitic wound following 3rd degree burn, 11th day post initiation of therapy
  granulation/angiogenic tissue in wound bed: extensive granulation/angiogenic tissue
Chronic wounds; cellulitic wound following 3rd degree burn, third day of topical therapy
  granulation/angiogenesis: reasonable granulation/angiogenesis
Chronic wounds; chronic diabetic ulcer, around 11th day post initiation of therapy
  blood cell intravasation in the wound area: extensive blood cell intravasation
Chronic wounds; chronic diabetic ulcer, topical
  glandular structures (histopathology): healthy glandular structures
Chronic wounds; chronic human wounds, topical
  angiogenic response (histopathology): profuse angiogenic response; also recorded: Extensive angiogenic response
Chronic wounds; chronic stump wound
  time to skin graft (clinical end point): around two weeks
Chronic wounds; chronic stump wound, within two weeks of topical therapy
  granulation: extensive granulation
Chronic wounds; experimental wounds of human origin
  Keratinocyte layer thickening (histopathology): very advanced degree of Keratinocyte layer thickening
Chronic wounds; infected third degree burn, post institution of therapy
  time to ready for skin graft: 13 days
Chronic wounds; infected third degree burn, within around two weeks
  induction of granulation tissue/angiogenesis: remarkable induction of granulation tissue/angiogenesis
Chronic wounds; leprotic wound (about 3 yr old), topical
  granulation/angiogenesis: very good granulation/angiogenesi-s
Chronic wounds; leprotic wound, about 12 weeks topical treatment
  reduction in size: about 60%
Chronic wounds; topical and/or systemic therapy
  time to initiation of repair-by-in-situ-regeneration: 72 to 96 h
Chronic wounds; wounds of different locations, origins and durations
  time to first appearance of healthy granulation tissue: 72 to 96 h
Ischaemic myocardium; 96 hrs post surgery
  echocardiography: movement of myocardium in ischaemic zones: definite non-asynchronous movement of the myocardium
Ischaemic myocardium; 21 days post surgery
  hierarchical nature of the angiogenic response: capillaries filled with blood cells
Ischaemic myocardium; 21 days post surgery, vs control
  angiogenic response in ischaemic cardiac muscle tissue: extensive angiogenic response
Ischaemic myocardium; around two-weeks, vs control
  histopathology: angiogenic response: advanced degree of matured angiogenic response
